Data: publication PMC11851430, “Workflow for E3 Ligase Ligand Validation for PROTAC Development” (ACS Chemical Biology, 2025)

What was measured:
Assay in all cases: DSF assay
Format in all cases: binding
Conditions in all cases: 20 µM compound
CLK3A = biological target: T1, CLK3A (Homo sapiens, UniProt P49761)
T1 construct: purchased in-house DSF panel (SGC-style construct names; the trailing A/B is a construct suffix)
Experimental: (§1) Excitation and emission filters […]
(§2) curve. […] Measurements were
(§3) Kinobeads selectivity profiling of PROTACs
(§4) (Multiplexion, Heidelberg, Germany).
(§5) The cell lysate was ultracentrifuged and diluted
(§6) NaF, 1 mM DTT, protease inhibitors and phosphatase inhibitors to a final concentration of 5 mg/ml as determined by Bradford assay. For selectivity profiling of compounds the cell lysate (2.5 mg of total proteins per pulldown) was pre-incubated with increasing compound […]
(§7) µM) for 45 min at 4 °C in an end-over-end shaker. Subsequently, lysates were incubated with Kinobeads epsilon (17 µL settled beads) for 30 min at 4 °C. To assess the degree of protein depletion from the lysates by Kinobeads, the flow-through of the DMSO control was recovered

RPS6KA1A = test system: RPS6KA1A
Experimental: as §1, §2, §3, §4, §5, §6, §7

MAPK8B = biological target: T2, MAPK8B (Homo sapiens, UniProt P45983)
T2 construct: purchased in-house DSF panel (SGC-style construct names; the trailing A/B is a construct suffix)
Experimental: as §1, §2, §3, §4, §5, §6, §7

CK2A1A = biological target: T3, CK2A1A (Homo sapiens, UniProt P68400)
T3 construct: purchased in-house DSF panel (SGC-style construct names; the trailing A/B is a construct suffix)
Experimental: as §1, §2, §3, §4, §5, §6, §7

MAPK9A = biological target: T4, MAPK9A (Homo sapiens, UniProt P45984)
T4 construct: purchased in-house DSF panel (SGC-style construct names; the trailing A/B is a construct suffix)
Experimental: as §1, §2, §3, §4, §5, §6, §7

FGFR3A = biological target: T5, FGFR3A (Homo sapiens, UniProt P22607)
T5 construct: purchased in-house DSF panel (SGC-style construct names; the trailing A/B is a construct suffix)
Experimental: as §1, §2, §3, §4, §5, §6, §7

CAMK2DA = biological target: T6, CAMK2DA (Homo sapiens, UniProt Q13557)
T6 construct: purchased in-house DSF panel (SGC-style construct names; the trailing A/B is a construct suffix)
Experimental: as §1, §2, §3, §4, §5, §6, §7

CSNK1DA = biological target: T7, CSNK1DA (Homo sapiens, UniProt P48730)
T7 construct: purchased in-house DSF panel (SGC-style construct names; the trailing A/B is a construct suffix)
T7 sequence (P48730 1-294): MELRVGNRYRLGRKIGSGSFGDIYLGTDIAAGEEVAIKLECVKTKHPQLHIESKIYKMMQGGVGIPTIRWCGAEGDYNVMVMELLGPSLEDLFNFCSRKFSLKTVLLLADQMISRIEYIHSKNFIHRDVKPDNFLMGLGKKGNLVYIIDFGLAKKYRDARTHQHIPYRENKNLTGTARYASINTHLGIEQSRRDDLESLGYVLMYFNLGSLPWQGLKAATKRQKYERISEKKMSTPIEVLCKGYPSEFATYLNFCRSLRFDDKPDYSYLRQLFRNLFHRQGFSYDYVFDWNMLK
Experimental: as §1, §2, §3, §4, §5, §6, §7

MST4A = biological target: T8, MST4A (Homo sapiens, UniProt Q9P289)
T8 construct: purchased in-house DSF panel (SGC-style construct names; the trailing A/B is a construct suffix)
Experimental: as §1, §2, §3, §4, §5, §6, §7

MARK3A = biological target: T9, MARK3A (Homo sapiens, UniProt P27448)
T9 construct: purchased in-house DSF panel (SGC-style construct names; the trailing A/B is a construct suffix)
Experimental: as §1, §2, §3, §4, §5, §6, §7

DAPK3A = biological target: T10, DAPK3A (Homo sapiens, UniProt O43293)
T10 construct: purchased in-house DSF panel (SGC-style construct names; the trailing A/B is a construct suffix)
Experimental: as §1, §2, §3, §4, §5, §6, §7

STK38LA = biological target: T11, STK38LA (Homo sapiens, UniProt Q9Y2H1)
T11 construct: purchased in-house DSF panel (SGC-style construct names; the trailing A/B is a construct suffix)
Experimental: as §1, §2, §3, §4, §5, §6, §7

EPHA5A = biological target: T12, EPHA5A (Homo sapiens, UniProt P54756)
T12 construct: purchased in-house DSF panel (SGC-style construct names; the trailing A/B is a construct suffix)
T12 sequence (P54756 653-939): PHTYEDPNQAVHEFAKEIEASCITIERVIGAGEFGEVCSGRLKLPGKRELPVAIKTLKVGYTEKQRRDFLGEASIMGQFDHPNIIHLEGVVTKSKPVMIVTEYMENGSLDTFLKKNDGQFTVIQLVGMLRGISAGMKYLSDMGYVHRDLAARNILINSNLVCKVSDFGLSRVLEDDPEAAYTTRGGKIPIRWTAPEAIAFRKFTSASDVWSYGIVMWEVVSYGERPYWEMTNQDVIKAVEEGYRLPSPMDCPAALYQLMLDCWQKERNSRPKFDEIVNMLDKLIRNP
Experimental: as §1, §2, §3, §4, §5, §6, §7

MAP2K1A = biological target: T13, MAP2K1A (Homo sapiens, UniProt Q02750)
T13 construct: purchased in-house DSF panel (SGC-style construct names; the trailing A/B is a construct suffix)
Experimental: as §1, §2, §3, §4, §5, §6, §7

AURKBA = biological target: T14, AURKBA (Homo sapiens, UniProt Q96GD4)
T14 construct: purchased in-house DSF panel (SGC-style construct names; the trailing A/B is a construct suffix)

NEK1A = biological target: T15, NEK1A (Homo sapiens, UniProt Q96PY6)
T15 construct: purchased in-house DSF panel (SGC-style construct names; the trailing A/B is a construct suffix)
T15 sequence (Q96PY6 1-328): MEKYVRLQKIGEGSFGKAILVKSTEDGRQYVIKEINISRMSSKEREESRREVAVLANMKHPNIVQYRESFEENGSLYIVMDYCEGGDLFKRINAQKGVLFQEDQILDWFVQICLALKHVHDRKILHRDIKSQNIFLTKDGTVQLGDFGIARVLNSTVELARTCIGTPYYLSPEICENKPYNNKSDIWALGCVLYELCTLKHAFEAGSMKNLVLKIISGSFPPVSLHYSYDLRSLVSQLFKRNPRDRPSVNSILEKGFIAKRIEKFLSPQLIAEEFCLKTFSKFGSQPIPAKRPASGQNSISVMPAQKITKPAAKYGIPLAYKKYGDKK

T11 sequence (Q9Y2H1 90-453): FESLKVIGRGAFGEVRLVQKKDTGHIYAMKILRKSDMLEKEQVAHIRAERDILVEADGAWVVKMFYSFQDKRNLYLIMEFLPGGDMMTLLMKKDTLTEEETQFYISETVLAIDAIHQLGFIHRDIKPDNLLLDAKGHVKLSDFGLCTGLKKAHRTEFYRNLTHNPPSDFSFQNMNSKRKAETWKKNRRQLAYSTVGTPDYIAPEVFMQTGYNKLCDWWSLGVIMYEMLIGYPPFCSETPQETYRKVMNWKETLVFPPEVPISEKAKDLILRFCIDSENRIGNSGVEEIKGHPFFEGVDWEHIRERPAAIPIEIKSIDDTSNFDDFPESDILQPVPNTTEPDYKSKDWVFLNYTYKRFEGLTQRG
T5 sequence (P22607 455-768): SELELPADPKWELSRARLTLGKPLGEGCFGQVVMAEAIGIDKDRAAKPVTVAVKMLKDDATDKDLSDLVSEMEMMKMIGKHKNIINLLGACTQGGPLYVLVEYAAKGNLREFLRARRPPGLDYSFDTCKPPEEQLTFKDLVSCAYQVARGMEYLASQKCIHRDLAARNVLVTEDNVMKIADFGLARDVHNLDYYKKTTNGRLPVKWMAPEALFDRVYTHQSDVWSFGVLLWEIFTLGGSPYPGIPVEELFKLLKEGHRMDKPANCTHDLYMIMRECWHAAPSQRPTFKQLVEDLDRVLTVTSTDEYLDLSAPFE
T14 sequence (Q96GD4 whole entry): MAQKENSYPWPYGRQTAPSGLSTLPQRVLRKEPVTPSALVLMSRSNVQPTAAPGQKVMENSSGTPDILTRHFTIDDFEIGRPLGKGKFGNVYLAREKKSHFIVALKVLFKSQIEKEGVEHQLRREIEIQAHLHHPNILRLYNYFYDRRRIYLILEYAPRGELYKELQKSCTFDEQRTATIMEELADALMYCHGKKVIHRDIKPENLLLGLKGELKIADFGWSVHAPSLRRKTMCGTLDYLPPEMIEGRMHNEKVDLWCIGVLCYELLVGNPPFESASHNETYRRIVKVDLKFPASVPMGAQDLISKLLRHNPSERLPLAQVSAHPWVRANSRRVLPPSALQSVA
T9 sequence (P27448 56-307): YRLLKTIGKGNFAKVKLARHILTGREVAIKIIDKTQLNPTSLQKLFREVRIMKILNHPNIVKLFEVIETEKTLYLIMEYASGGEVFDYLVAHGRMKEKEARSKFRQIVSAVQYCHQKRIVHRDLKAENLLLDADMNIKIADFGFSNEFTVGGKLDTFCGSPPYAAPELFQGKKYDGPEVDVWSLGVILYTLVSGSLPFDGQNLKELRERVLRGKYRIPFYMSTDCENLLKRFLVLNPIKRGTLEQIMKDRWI
T13 sequence (Q02750 62-393): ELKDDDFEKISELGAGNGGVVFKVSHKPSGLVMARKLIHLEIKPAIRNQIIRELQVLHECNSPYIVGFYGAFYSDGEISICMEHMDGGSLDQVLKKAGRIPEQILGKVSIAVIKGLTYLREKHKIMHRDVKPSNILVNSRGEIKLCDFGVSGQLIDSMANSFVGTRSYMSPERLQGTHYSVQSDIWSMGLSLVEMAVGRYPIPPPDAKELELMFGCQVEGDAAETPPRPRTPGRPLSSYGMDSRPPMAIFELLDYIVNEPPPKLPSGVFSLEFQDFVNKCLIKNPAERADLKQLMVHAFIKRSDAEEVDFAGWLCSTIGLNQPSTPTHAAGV
T4 sequence (P45984 1-364): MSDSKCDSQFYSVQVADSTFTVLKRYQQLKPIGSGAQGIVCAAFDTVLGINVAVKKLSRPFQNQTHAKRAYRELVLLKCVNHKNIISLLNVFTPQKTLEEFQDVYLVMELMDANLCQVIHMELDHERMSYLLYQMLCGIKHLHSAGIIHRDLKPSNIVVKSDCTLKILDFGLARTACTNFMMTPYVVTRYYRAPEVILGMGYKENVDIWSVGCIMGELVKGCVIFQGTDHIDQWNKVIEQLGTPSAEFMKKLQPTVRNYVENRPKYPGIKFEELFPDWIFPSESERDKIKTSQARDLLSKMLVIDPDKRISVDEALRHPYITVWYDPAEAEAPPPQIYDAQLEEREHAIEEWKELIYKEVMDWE
T1 sequence (P49761 127-484): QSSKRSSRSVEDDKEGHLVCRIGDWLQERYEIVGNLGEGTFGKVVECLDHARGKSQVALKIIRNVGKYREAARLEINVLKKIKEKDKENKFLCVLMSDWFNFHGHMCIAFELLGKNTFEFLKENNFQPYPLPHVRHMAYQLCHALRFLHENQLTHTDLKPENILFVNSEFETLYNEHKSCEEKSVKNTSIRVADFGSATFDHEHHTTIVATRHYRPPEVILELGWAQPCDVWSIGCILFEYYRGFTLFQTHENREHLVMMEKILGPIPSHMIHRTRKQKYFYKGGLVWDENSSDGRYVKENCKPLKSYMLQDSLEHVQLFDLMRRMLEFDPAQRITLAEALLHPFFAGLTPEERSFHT
T2 sequence (P45983 1-364): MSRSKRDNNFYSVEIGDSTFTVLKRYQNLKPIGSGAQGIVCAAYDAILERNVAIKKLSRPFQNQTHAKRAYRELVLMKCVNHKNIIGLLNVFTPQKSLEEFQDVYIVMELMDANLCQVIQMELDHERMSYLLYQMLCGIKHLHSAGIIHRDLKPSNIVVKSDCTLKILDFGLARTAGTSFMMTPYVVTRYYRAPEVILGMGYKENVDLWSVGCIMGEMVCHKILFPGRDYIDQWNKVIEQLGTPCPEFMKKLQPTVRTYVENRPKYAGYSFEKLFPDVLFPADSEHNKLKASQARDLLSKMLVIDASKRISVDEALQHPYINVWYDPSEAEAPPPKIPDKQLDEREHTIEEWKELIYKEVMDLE
T6 sequence (Q13557 11-309): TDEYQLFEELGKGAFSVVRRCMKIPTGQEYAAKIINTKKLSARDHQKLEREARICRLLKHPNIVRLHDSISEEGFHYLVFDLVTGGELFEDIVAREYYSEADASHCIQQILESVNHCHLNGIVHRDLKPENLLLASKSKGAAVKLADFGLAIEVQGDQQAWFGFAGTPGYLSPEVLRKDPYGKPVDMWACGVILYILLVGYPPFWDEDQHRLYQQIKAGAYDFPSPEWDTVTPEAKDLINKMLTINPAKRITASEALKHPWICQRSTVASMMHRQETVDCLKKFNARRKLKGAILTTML
T10 sequence (O43293 9-289): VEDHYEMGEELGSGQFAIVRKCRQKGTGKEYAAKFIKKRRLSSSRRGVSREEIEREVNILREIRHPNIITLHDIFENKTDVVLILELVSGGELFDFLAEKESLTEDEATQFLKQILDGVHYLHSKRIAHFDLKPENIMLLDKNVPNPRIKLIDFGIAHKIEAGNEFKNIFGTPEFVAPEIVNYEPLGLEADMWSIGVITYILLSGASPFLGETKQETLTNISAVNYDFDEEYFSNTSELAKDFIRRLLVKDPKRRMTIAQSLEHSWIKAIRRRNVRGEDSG
T3 sequence (P68400 whole entry): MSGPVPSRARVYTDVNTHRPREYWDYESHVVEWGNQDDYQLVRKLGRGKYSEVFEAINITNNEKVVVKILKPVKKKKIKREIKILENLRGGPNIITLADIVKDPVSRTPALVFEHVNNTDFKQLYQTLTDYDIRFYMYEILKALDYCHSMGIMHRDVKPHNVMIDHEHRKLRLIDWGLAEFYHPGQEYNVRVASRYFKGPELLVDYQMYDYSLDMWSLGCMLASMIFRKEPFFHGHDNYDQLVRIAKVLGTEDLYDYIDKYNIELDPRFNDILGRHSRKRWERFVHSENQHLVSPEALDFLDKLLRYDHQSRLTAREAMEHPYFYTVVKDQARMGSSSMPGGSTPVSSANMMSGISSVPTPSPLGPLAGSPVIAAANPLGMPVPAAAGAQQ
T8 sequence (Q9P289 1-300): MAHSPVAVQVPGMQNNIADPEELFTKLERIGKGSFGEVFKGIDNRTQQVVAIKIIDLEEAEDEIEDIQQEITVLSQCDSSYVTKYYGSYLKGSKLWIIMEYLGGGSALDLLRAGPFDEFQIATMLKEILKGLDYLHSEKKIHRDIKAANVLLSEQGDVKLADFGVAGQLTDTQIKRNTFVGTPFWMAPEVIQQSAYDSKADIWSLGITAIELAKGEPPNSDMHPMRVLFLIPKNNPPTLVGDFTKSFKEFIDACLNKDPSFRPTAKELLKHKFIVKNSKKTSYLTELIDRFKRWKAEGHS

ΔTm at 20 µM (CLK3A)	ΔTm at 20 µM (MAPK8B)	ΔTm at 20 µM (CK2A1A)	ΔTm at 20 µM (MAPK9A)	ΔTm at 20 µM (FGFR3A)	ΔTm at 20 µM (CAMK2DA)	ΔTm at 20 µM (CSNK1DA)	ΔTm at 20 µM (MST4A)	ΔTm at 20 µM (MARK3A)	ΔTm at 20 µM (DAPK3A)	ΔTm at 20 µM (STK38LA)	ΔTm at 20 µM (EPHA5A)	ΔTm at 20 µM (MAP2K1A)	ΔTm at 20 µM (AURKBA)	ΔTm at 20 µM (NEK1A)	SMILES	ΔTm (RPS6KA1A)
9.57 °C	4.31 °C	3.87 °C	2.84 °C	8.45 °C	3.37 °C	2.62 °C	5.53 °C	5.37 °C	10.6 °C	6.74 °C	5.7 °C	1.56 °C	8.24 °C	0.62 °C	CCOC(=O)c1cc(Nc2cc(C3CC3)[nH]n2)nc(Nc2ccc(CC#N)cc2)n1 [compound 5]	1.55 °C
6.42 °C	6.93 °C	3.81 °C	4.27 °C	11.4 °C	2.15 °C	3.01 °C	9.01 °C	5.32 °C	7.59 °C	10.2 °C	7.97 °C	1.66 °C	12.7 °C	0.45 °C	CC(C)(C)OC(=O)NCCOCCOCCOCCOCCC(=O)N1CCN(c2cc(Nc3cc(C4CC4)[nH]n3)nc(Nc3ccc(CC#N)cc3)n2)CC1 [4-L]	0.76 °C
9.33 °C	6.48 °C	5.58 °C	4.61 °C	7 °C	3.75 °C	5.43 °C	4.64 °C	3.97 °C	7.97 °C	7.04 °C	4.95 °C	1.17 °C	2.62 °C	0.017 °C	CC(C)(C)OC(=O)NCCCOCCOCCOCCCNC(=O)c1cc(Nc2cc(C3CC3)[nH]n2)nc(Nc2ccc(CC#N)cc2)n1 [5-L]	1.85 °C
